# Measurements: ChEMBL document CHEMBL5608163, “Structure modification of anoplin for fighting resistant bacteria” (Eur J Med Chem, 2024)
# Square brackets hold non-standard residues; d marks the D form. Peptide text beside a SMILES is read from it. * marks the point of attachment. Heptadecanoyl = CCCCCCCCCCCCCCCCC(=O)*; 2Nal = N[C@@H](Cc1ccc2ccccc2c1)C(=O)O; Cha = N[C@@H](CC1CCCCC1)C(=O)O; Undecanoyl = CCCCCCCCCCC(=O)*; Nonanoyl = CCCCCCCCC(=O)*
# Assays:
# [1] = test system: Staphylococcus aureus; assay: Antibacterial activity against methicillin resistant Staphylococcus aureus ATCC 33591 assessed as inhibition of bacterial growth incubated for 16 to 20 hrs by broth micro-dilution method; assay type: functional; conditions: time 16-20 hrs
# [2] = test system: Enterococcus faecium; assay: Antibacterial activity against Vancomycin resistant Enterococcus faecium ATCC 700221 assessed as inhibition of bacterial growth incubated for 16 to 20 hrs by broth micro-dilution method; assay type: functional; conditions: time 16-20 hrs
# [3] = test system: Escherichia coli; assay: Antibacterial activity against Escherichia coli ATCC 25922 assessed as reduction in bacterial growth; assay type: functional
# [4] = test system: Staphylococcus aureus; assay: Antibacterial activity against Staphylococcus aureus ATCC 29213 assessed as bacterial growth inhibition measured after 18 hrs by CLSI protocol based two-fold serial microdilution method; assay type: functional
# [5] = Hemolytic activity in human RBC; assay type: toxicity, cell-based, Erythrocyte; conditions: red blood cells
# [6] = test system: Escherichia coli; assay: Antibacterial activity against Escherichia coli ATCC 25922 assessed as reduction in bacterial growth incubated for 18 to 20 hrs by Mueller Hinton broth dilution method; assay type: functional; conditions: time 18-20 hrs
# [7] = test system: Staphylococcus aureus; assay: Antibacterial activity against Staphylococcus aureus ATCC 25923 assessed as reduction in bacterial growth incubated for 24 hrs by serial dilution method; assay type: functional
# [8] = test system: Escherichia coli; assay: Antibacterial activity against Escherichia coli ATCC 25922 assessed as bacterial growth inhibition measured after 48 hrs by resazurin assay; assay type: functional
# [9] = Hemolytic activity in human RBC assessed as hemolysis; assay type: toxicity, cell-based, Erythrocyte; conditions: red blood cells
# [10] = test system: Mycolicibacterium smegmatis; assay: Antimycobacterial activity against Mycobacterium smegmatis mc2 155 assessed as reduction in bacterial cell growth incubated for 24 hrs by resazurin dye based broth microdilution method; assay type: functional
# [11] = test system: Bacillus subtilis; assay: Antimicrobial activity against Bacillus subtilis assessed as microbial growth inhibition incubated for 24 hrs by broth micro-dilution method; assay type: functional
# [12] = test system: Zymomonas mobilis; assay: Antibacterial activity against Zymomonas mobilis ATCC 10988 assessed as reduction in bacterial growth incubated for 24 hrs by broth micro-dilution method; assay type: functional
# [13] = Hemolytic activity against human Red blood cells assessed as cell lysis; assay type: toxicity, cell-based, Erythrocyte
# [14] = test system: Escherichia coli; assay: Antibacterial acitivity against Escherichia coli DH5a assessed as bacterial growth inhibition incubated for 24 hrs by broth micro-dilution method; assay type: functional
# [15] = test system: Staphylococcus aureus; assay: Antibacterial activity against Staphylococcus aureus ATCC 25923 assessed as reduction in bacterial growth incubated for 48 hrs by Mueller-Hinton broth based microdilution method; assay type: functional
# [16] = test system: Escherichia coli; assay: Antibacterial activity against Escherichia coli ATCC 25922 assessed as reduction in bacterial growth incubated for 48 hrs by Mueller-Hinton broth based microdilution method; assay type: functional
# [17] = test system: Escherichia coli; assay: Antibacterial activity against Escherichia coli DH5a assessed as bacterial growth inhibition; assay type: functional
# [18] = test system: Pseudomonas aeruginosa; assay: Antibacterial activity against Pseudomonas aeruginosa PAO1 assessed as bacterial growth inhibition; assay type: functional
# [19] = test system: Bacillus subtilis; assay: Antibacterial activity against Bacillus subtilis assessed as bacterial growth inhibition; assay type: functional
# [20] = Hemolytic activity in human erythrocytes measured after 1 hrs by microplate reader analysis; assay type: toxicity, cell-based, Erythrocyte
# [21] = test system: Mycolicibacterium smegmatis; assay: Antibacterial activity against Mycobacterium smegmatis mc2 155 assessed as bacterial growth inhibition; assay type: functional
# [22] = test system: Zymomonas mobilis; assay: Antibacterial activity against Zymomonas mobilis ATCC 10988 assessed as bacterial growth inhibition; assay type: functional
smiles,measurement,setting,value
CC[C@@H](C)[C@@H](NC(=O)[C@H](CCCNC(=N)N)NC(=O)[C@H](CCCCN)NC(=O)[C@H](CC(C)C)NC(=O)[C@H](CC1CCCCC1)NC(=O)CN)C(=O)N[C@@H](CCCCN)C(=O)N[C@H](C(=O)N[C@@H](CC(C)C)C(=O)N[C@@H](CC1CCCCC1)C(N)=O)[C@@H](C)O,MIC,[1],56.8 µM
same,MIC,[2],56.8 µM
CC[C@H](C)[C@H](NC(=O)[C@H](Cc1ccccc1)NC(=O)[C@H](CCCCN)NC(=O)[C@H](CC(C)C)NC(=O)[C@H](CC(C)C)NC(=O)CN)C(=O)N[C@@H](CCCCN)C(=O)N[C@H](C(=O)N[C@@H](CC(C)C)C(=O)N[C@@H](CC(C)C)C(N)=O)[C@@H](C)O (H-GLLKFIKTLL-NH2),MIC,[3],1.8 µM
same,MIC,[4],1.8 µM
same,HC50,[5],67.3 µM
CC[C@H](C)[C@H](NC(=O)[C@H](CCCCN)NC(=O)[C@H](CC(C)C)NC(=O)[C@H](CC(C)C)NC(=O)CN)C(=O)N[C@H](C(=O)N[C@@H](CCCCN)C(=O)N[C@H](C(=O)N[C@@H](CC(C)C)C(=O)N[C@@H](CC(C)C)C(N)=O)[C@@H](C)O)[C@@H](C)CC (H-GLLKIIKTLL-NH2),MIC,[3],1.8 µM
same,MIC,[4],1.8 µM
same,HC50,[5],26.1 µM
CC(C)C[C@H](NC(=O)CN)C(=O)N[C@@H](CC(C)C)C(=O)N[C@@H](CCCCN)C(=O)N[C@@H](CCCCN)C(=O)N[C@@H](Cc1ccc2ccccc2c1)C(=O)N[C@@H](CCCCN)C(=O)N[C@@H](CCCCN)C(=O)N[C@@H](CC(C)C)C(=O)N[C@@H](CC1CCCCC1)C(N)=O (H-GLLKK[2Nal]KKL[Cha]-NH2),MIC,[1],9.5 µM
same,MIC,[2],3.2 µM
same,MIC,[6],16 µM
CC[C@H](C)[C@H](NC(=O)[C@H](CC(C)C)NC(=O)[C@H](CCCCN)NC(=O)[C@H](CC(C)C)NC(=O)[C@H](CC(C)C)NC(=O)CN)C(=O)N[C@@H](CCCCN)C(=O)N[C@H](C(=O)N[C@@H](CC(C)C)C(=O)N[C@@H](CC(C)C)C(N)=O)[C@@H](C)O (H-GLLKLIKTLL-NH2),MIC,[3],1.8 µM
same,MIC,[4],1.8 µM
same,HC50,[5],11.7 µM
CC[C@H](C)[C@H](NC(=O)[C@H](CC(N)=O)NC(=O)[C@H](CCCCN)NC(=O)[C@H](CC(C)C)NC(=O)[C@H](CC(C)C)NC(=O)CN)C(=O)N[C@@H](CCCCN)C(=O)N[C@H](C(=O)N[C@@H](CC(C)C)C(=O)N[C@@H](CC(C)C)C(N)=O)[C@@H](C)O (H-GLLKNIKTLL-NH2),MIC,[3],1.7 µM
same,MIC,[4],1.7 µM
CC[C@H](C)[C@H](NC(=O)[C@H](CCCNC(=N)N)NC(=O)[C@H](CCCCN)NC(=O)[C@H](CC(C)C)NC(=O)[C@H](CC(C)C)NC(=O)CN)C(=O)N[C@@H](CCCCN)C(=O)N[C@H](C(=O)N[C@@H](CC(C)C)C(=O)N[C@@H](CC(C)C)C(N)=O)C(C)C (H-GLLKRIKVLL-NH2),MIC,[7],19.1 µM
same,MIC,[8],19.1 µM
same,HC50,[9],69.5 µM
CC[C@H](C)[C@H](NC(=O)[C@H](CCCNC(=N)N)NC(=O)[C@H](CCCCN)NC(=O)[C@H](CC(C)C)NC(=O)[C@H](CC(C)C)NC(=O)CN)C(=O)N[C@@H](CCCCN)C(=O)N[C@@H](Cc1c[nH]c2ccccc12)C(=O)N[C@@H](CC(C)C)C(=O)N[C@@H](CC(C)C)C(N)=O (H-GLLKRIKWLL-NH2),MIC,[7],3.2 µM
same,MIC,[8],6.5 µM
same,HC50,[9],500 µM
CC[C@H](C)[C@H](NC(=O)[C@@H](NC(=O)[C@H](CCCCN)NC(=O)[C@H](CC(C)C)NC(=O)[C@H](CC(C)C)NC(=O)CN)C(C)C)C(=O)N[C@@H](CCCCN)C(=O)N[C@H](C(=O)N[C@@H](CC(C)C)C(=O)N[C@@H](CC(C)C)C(N)=O)[C@@H](C)O (H-GLLKVIKTLL-NH2),MIC,[3],2.7 µM
same,MIC,[4],2.7 µM
same,HC50,[5],54.7 µM
CC[C@H](C)[C@H](NC(=O)[C@H](Cc1ccccc1)NC(=O)[C@H](CCCCN)NC(=O)[C@H](CC(C)C)NC(=O)[C@H](CC(C)C)NC(=O)[C@@H](N)CCCCN)C(=O)N[C@@H](CCCCN)C(=O)N[C@@H](CCCCN)C(=O)N[C@@H](CC(C)C)C(=O)N[C@@H](CC(C)C)C(N)=O (H-KLLKFIKKLL-NH2),MIC,[10],13.3 µM
same,MIC,[11],35.6 µM
same,MIC,[12],8.9 µM
same,HC50,[13],> 403 µM
same,MIC,[14],322 µM
CC[C@H](C)[C@H](NC(=O)[C@H](Cc1ccccc1)NC(=O)[C@H](CCCCN)NC(=O)[C@H](CC(C)C)NC(=O)[C@H](CC(C)C)NC(=O)[C@@H](N)CCCNC(=N)N)C(=O)N[C@@H](CCCCN)C(=O)N[C@@H](CCCCN)C(=O)N[C@@H](CC(C)C)C(=O)N[C@@H](CC(C)C)C(N)=O (H-RLLKFIKKLL-NH2),MIC,[10],15.8 µM
same,MIC,[11],31.5 µM
same,MIC,[12],7.9 µM
same,HC50,[13],> 394 µM
same,MIC,[14],315 µM
CCCCCCCCCCCCCCCCC(=O)NCC(=O)N[C@@H](CC(C)C)C(=O)N[C@@H](CC(C)C)C(=O)N[C@@H](CCCCN)C(=O)N[C@@H](CCCNC(=N)N)C(=O)N[C@H](C(=O)N[C@@H](CCCCN)C(=O)N[C@H](C(=O)N[C@@H](CC(C)C)C(=O)N[C@@H](CC(C)C)C(N)=O)[C@@H](C)O)[C@@H](C)CC (Heptadecanoyl-GLLKRIKTLL-NH2),MIC,[15],4.67 µM
same,MIC,[16],2.34 µM
CCCCCCCCC(=O)NCC(=O)N[C@@H](CC(C)C)C(=O)N[C@@H](CCCCN)C(=O)N[C@@H](CCCCN)C(=O)N[C@H](C(=O)N[C@H](C(=O)N[C@@H](CCCCN)C(=O)N[C@@H](CCCCN)C(=O)N[C@@H](CC(C)C)C(=O)N[C@@H](CC(C)C)C(N)=O)[C@@H](C)CC)[C@@H](C)CC (Nonanoyl-GLKKIIKKLL-NH2),MIC,[17],76.6 µM
same,MIC,[18],11.5 µM
same,MIC,[19],3.83 µM
same,HC50 at 1 h,[20],61.9 µM
same,MIC,[21],2.3 µM
same,MIC,[22],11.5 µM
CCCCCCCCC(=O)NCC(=O)N[C@@H](CC(C)C)C(=O)N[C@@H](CC(C)C)C(=O)N[C@@H](CCCCN)C(=O)N[C@H](C(=O)N[C@H](C(=O)N[C@@H](CCCCN)C(=O)N[C@@H](CCCCN)C(=O)N[C@@H](CC(C)C)C(=O)N[C@@H](CC(C)C)C(N)=O)[C@@H](C)CC)[C@@H](C)CC (Nonanoyl-GLLKIIKKLL-NH2),MIC,[17],> 155 µM
same,MIC,[18],23.3 µM
same,MIC,[19],5.43 µM
same,HC50 at 1 h,[20],> 155 µM
same,MIC,[21],15.5 µM
same,MIC,[22],7.75 µM
CCCCCCCCCCC(=O)NCC(=O)N[C@@H](CC(C)C)C(=O)N[C@@H](CCCCN)C(=O)N[C@@H](CCCCN)C(=O)N[C@H](C(=O)N[C@H](C(=O)N[C@@H](CCCCN)C(=O)N[C@@H](CCCCN)C(=O)N[C@@H](CC(C)C)C(=O)N[C@@H](CC(C)C)C(N)=O)[C@@H](C)CC)[C@@H](C)CC (Undecanoyl-GLKKIIKKLL-NH2),MIC,[17],25 µM
same,MIC,[18],16.7 µM
same,MIC,[19],5.83 µM
same,HC50 at 1 h,[20],62.9 µM
same,MIC,[21],0.42 µM
same,MIC,[22],12.5 µM
CCCCCCCCCCC(=O)NCC(=O)N[C@@H](CC(C)C)C(=O)N[C@@H](CC(C)C)C(=O)N[C@@H](CCCCN)C(=O)N[C@H](C(=O)N[C@H](C(=O)N[C@@H](CCCCN)C(=O)N[C@@H](CCCCN)C(=O)N[C@@H](CC(C)C)C(=O)N[C@@H](CC(C)C)C(N)=O)[C@@H](C)CC)[C@@H](C)CC (Undecanoyl-GLLKIIKKLL-NH2),MIC,[17],> 174 µM
same,MIC,[18],34.7 µM
same,MIC,[19],26 µM
same,HC50 at 1 h,[20],38.7 µM
same,MIC,[21],6.08 µM
same,MIC,[22],8.68 µM
CCCCCCCCCCC(=O)NCC(=O)N[C@@H](CC(C)C)C(=O)N[C@@H](CC(C)C)C(=O)N[C@@H](CCCCN)C(=O)N[C@H](C(=O)N[C@H](C(=O)N[C@@H](CCCCN)C(=O)N[C@@H](CCCNC(=N)N)C(=O)N[C@@H](CC(C)C)C(=O)N[C@@H](CC(C)C)C(N)=O)[C@@H](C)CC)[C@@H](C)CC (Undecanoyl-GLLKIIKRLL-NH2),MIC,[17],> 167 µM
same,MIC,[18],33.3 µM
same,MIC,[19],167 µM
same,HC50 at 1 h,[20],56.8 µM
same,MIC,[21],33.3 µM
same,MIC,[22],12.5 µM
CCCCCCCCCCC(=O)NCC(=O)N[C@@H](CC(C)C)C(=O)N[C@@H](CC(C)C)C(=O)N[C@@H](CCCCN)C(=O)N[C@@H](CCCCN)C(=O)N[C@H](C(=O)N[C@@H](CCCCN)C(=O)N[C@@H](CCCNC(=N)N)C(=O)N[C@@H](CC(C)C)C(=O)N[C@@H](CC(C)C)C(N)=O)[C@@H](C)CC (Undecanoyl-GLLKKIKRLL-NH2),MIC,[17],34.4 µM
same,MIC,[18],2.58 µM
same,MIC,[19],86.2 µM
same,HC50 at 1 h,[20],38 µM
same,MIC,[21],86.2 µM
same,MIC,[22],4.3 µM
